In the NIST ThermoML archive (doi:10.1021/acs.jced.7b00650):
± gives the expanded uncertainty stated by the source.

Conditions: Liquid; for viscosity: Capillary tube (Ostwald / Ubbelohde) method; for mass density: Vibrating tube method

CCCCC [pentane]
Conditions	mass density [kg/m3]	viscosity [mPa·s]
293.21 K, 2000 kPa	628.05 ± 0.84	0.232 ± 0.0029
293.21 K, 3998 kPa	630.31 ± 0.85	0.2382 ± 0.0029
293.21 K, 6000 kPa	632.63 ± 0.86	0.2439 ± 0.003
293.21 K, 8003 kPa	634.89 ± 0.87	0.2495 ± 0.0031
293.21 K, 13008 kPa	640.02 ± 0.9	0.2637 ± 0.0032
293.21 K, 30000 kPa	655.38 ± 1	0.31 ± 0.0037
293.22 K, 10008 kPa	636.91 ± 0.88	0.2551 ± 0.0031
293.22 K, 16007 kPa	643 ± 0.92	0.2719 ± 0.0033
293.22 K, 19009 kPa	645.81 ± 0.94	0.2806 ± 0.0034
293.22 K, 22010 kPa	648.59 ± 0.96	0.2885 ± 0.0035
293.22 K, 25002 kPa	651.19 ± 0.98	0.2967 ± 0.0036
293.22 K, 28002 kPa	653.72 ± 1	0.3046 ± 0.0036
313.1 K, 2005 kPa	608.49 ± 0.82	0.1968 ± 0.0025
313.1 K, 6001 kPa	613.99 ± 0.84	0.2075 ± 0.0026
313.1 K, 7999 kPa	616.58 ± 0.85	0.2126 ± 0.0027
313.1 K, 10005 kPa	619.09 ± 0.87	0.218 ± 0.0027
313.1 K, 13001 kPa	622.65 ± 0.89	0.2259 ± 0.0028
313.1 K, 16005 kPa	626.03 ± 0.91	0.2334 ± 0.0029
313.1 K, 19002 kPa	629.28 ± 0.93	0.2409 ± 0.003
313.1 K, 22002 kPa	632.38 ± 0.95	0.2485 ± 0.0031
313.1 K, 25004 kPa	635.4 ± 0.97	0.2558 ± 0.0031
313.1 K, 28002 kPa	638.2 ± 0.99	0.2628 ± 0.0032
313.1 K, 30005 kPa	640.09 ± 1	0.2676 ± 0.0033
313.11 K, 4002 kPa	611.31 ± 0.83	0.2023 ± 0.0026
333.01 K, 2009 kPa	587.87 ± 0.8	0.1679 ± 0.0022
333.01 K, 3997 kPa	591.4 ± 0.81	0.1737 ± 0.0023
333.01 K, 6002 kPa	594.59 ± 0.82	0.1787 ± 0.0023
333.01 K, 8008 kPa	597.69 ± 0.84	0.1837 ± 0.0024
333.01 K, 10001 kPa	600.61 ± 0.85	0.1888 ± 0.0024
333.01 K, 12998 kPa	604.82 ± 0.87	0.1958 ± 0.0025
333.01 K, 15996 kPa	608.78 ± 0.89	0.2029 ± 0.0026
333.01 K, 19000 kPa	612.5 ± 0.91	0.21 ± 0.0026
333.01 K, 21997 kPa	616.1 ± 0.94	0.217 ± 0.0027
333.01 K, 25000 kPa	619.39 ± 0.96	0.2239 ± 0.0028
333.01 K, 27997 kPa	622.68 ± 0.98	0.2306 ± 0.0029
333.01 K, 30006 kPa	624.71 ± 1	0.2348 ± 0.0029
353.12 K, 2006 kPa	565.77 ± 0.77	0.1452 ± 0.002
353.12 K, 3997 kPa	570.01 ± 0.79	0.1504 ± 0.002
353.12 K, 6002 kPa	574.02 ± 0.8	0.1557 ± 0.0021
353.12 K, 8003 kPa	577.79 ± 0.82	0.1606 ± 0.0021
353.12 K, 10008 kPa	581.28 ± 0.83	0.1654 ± 0.0022
353.12 K, 13000 kPa	586.31 ± 0.85	0.1724 ± 0.0023
353.12 K, 16001 kPa	590.9 ± 0.88	0.1792 ± 0.0023
353.12 K, 18997 kPa	595.21 ± 0.9	0.1857 ± 0.0024
353.12 K, 25002 kPa	603.1 ± 0.95	0.1987 ± 0.0025
353.12 K, 28005 kPa	606.77 ± 0.98	0.2047 ± 0.0026
353.12 K, 30001 kPa	609.1 ± 1	0.2087 ± 0.0026
353.13 K, 22000 kPa	599.29 ± 0.93	0.1922 ± 0.0025
